Source: patent US12612409B2, “Pyrrolopyrimidines as CFTR potentiators” (Cystic Fibrosis Foundation, priority 2016, dated 2026)

Key:
[1] = biological target: T1, CFTR in F508del/F508del primary CF hBE cells (Homo sapiens, UniProt P13569, DEL508-508); assay: Ussing chamber electrophysiology assay of CFTR potentiation in F508del/F508del CF bronchial epithelial cells (27° C.); assay type: cell-based
T1 construct: Primary cystic fibrosis human bronchial epithelial (CF hBE) cells were expanded and cultured; endogenous in cells; host or cells: primary CF human bronchial epithelial cells, genotype F508del/F508del
Method in brief: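 Short-circuit current was recorded under zero-voltage clamp across primary CF bronchial epithelia cultured >30 days at air/liquid interface, bathed apically and basolaterally in HEPES-buffered saline. Sequential additions: amiloride (30 uM), forskolin (10 uM), compound at 4 increasing levels, CFTRinh-172 (20 uM). Responses normalised between DMSO (0%) and maximal positive-control potentiator (100%).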

[2] = biological target: T2, recombinant F508del V470 CFTR in Fischer rat thyroid (FRT) cells (Homo sapiens, UniProt P13569, DEL508-508); assay: FRT ion flux assay of F508del CFTR potentiation; assay type: cell-based; details: FRT cells expressing F508del V470 CFTR, forskolin 20 uM, 27° C. pre-incubation
T2 construct: expressed in transfected cells
Method in brief: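 Potentiation read as YFP quench ~21 s after iodide buffer addition, as second/initial fluorescence ratio normalised between DMSO (0%) and reference potentiator (100%).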

T2 sequence (P13569 with tags, fused parts or gaps DEL508-508): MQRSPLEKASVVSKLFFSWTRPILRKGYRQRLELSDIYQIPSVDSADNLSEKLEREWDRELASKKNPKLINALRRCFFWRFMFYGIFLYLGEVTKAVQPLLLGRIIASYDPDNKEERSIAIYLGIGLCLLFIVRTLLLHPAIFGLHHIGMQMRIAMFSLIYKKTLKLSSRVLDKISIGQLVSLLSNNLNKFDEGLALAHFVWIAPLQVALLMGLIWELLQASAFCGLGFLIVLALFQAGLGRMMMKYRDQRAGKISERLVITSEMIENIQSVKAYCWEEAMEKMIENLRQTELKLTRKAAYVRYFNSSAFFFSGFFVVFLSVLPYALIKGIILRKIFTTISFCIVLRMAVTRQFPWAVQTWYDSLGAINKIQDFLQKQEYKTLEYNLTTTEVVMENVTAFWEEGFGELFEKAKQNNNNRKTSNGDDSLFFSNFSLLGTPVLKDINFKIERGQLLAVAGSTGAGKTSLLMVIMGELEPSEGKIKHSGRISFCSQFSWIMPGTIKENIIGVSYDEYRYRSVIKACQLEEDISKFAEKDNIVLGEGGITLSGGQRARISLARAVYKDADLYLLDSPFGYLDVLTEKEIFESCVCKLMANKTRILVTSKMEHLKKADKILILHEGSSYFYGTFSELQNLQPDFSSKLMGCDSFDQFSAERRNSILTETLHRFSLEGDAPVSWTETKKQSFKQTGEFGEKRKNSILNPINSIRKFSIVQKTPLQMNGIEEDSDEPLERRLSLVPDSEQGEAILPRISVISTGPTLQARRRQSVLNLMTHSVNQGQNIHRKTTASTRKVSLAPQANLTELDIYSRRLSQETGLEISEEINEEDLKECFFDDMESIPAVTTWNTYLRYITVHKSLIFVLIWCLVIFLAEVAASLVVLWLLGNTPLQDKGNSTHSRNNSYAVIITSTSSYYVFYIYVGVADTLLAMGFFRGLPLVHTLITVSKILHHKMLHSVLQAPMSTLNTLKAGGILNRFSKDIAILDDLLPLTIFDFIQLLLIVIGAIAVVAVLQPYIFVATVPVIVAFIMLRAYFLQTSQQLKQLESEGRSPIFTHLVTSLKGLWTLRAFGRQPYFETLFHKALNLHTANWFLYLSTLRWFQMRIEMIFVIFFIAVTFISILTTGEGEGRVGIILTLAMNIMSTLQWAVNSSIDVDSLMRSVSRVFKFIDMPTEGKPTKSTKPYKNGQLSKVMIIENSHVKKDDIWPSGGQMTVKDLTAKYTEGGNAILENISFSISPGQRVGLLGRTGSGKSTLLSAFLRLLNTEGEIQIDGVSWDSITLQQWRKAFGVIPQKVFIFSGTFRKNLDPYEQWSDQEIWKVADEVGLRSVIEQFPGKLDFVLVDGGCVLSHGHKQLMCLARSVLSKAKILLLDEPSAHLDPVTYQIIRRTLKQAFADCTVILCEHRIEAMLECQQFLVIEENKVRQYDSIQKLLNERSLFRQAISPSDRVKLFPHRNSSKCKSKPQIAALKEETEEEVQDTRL
T1 sequence (P13569 with tags, fused parts or gaps DEL508-508): as above

| Structure (SMILES) | EC50 [1] [nM] | EC50 [2] [nM] |
| --- | --- | --- |
| CCC(c1cn(-c2ccccc2F)nn1)n1cc(-c2cnc(C(F)(F)F)nc2)c2c(N)ncnc21 (single isomer, unassigned; enantiomer 1) [Example 137, 7-{1-[1-(2-Fluorophenyl)-1H-1,2,3-triazol-4-yl]propyl}-5-[2-(trifluoromethyl)pyrimidin-5-yl]-7H-pyrrolo[2,3-d]pyrimidin-4-amine, enantiomer 1] | 10.3 | 5.86 |
| CCC(c1cn(-c2ccccc2F)nn1)n1cc(-c2cc(F)cnc2OC)c2c(N)ncnc21 (single isomer, unassigned; enantiomer 1) [Example 139, (+) 5-(5-Fluoro-2-methoxypyridin-3-yl)-7-{1-[1-(2-fluorophenyl)-1H-1,2,3-triazol-4-yl]propyl}-7H-pyrrolo[2,3-d]pyrimidin-4-amine, enantiomer 1] | 3 | 5.71 |
| CCC(c1cn(-c2ccccc2F)nn1)n1cc(-c2ccc(OC(F)F)nc2)c2c(N)ncnc21 (single isomer, unassigned; enantiomer 1) [Example 141, (−) 5-[6-(Difluoromethoxy)pyridin-3-yl]-7-{1-[1-(2-fluorophenyl)-1H-1,2,3-triazol-4-yl]propyl}-7H-pyrrolo[2,3-d]pyrimidin-4-amine, enantiomer 1] | 133 | 277 |
| CCC(c1cn(-c2ccccc2F)nn1)n1cc(-c2cnc(C(F)F)nc2)c2c(N)ncnc21 (single isomer, unassigned; enantiomer 1) [Example 143, 5-[2-(Difluoromethyl)pyrimidin-5-yl]-7-{1-[1-(2-fluorophenyl)-1H-1,2,3-triazol-4-yl]propyl}-7H-pyrrolo[2,3-d]pyrimidin-4-amine, enantiomer 1] | 26 | 10.5 |
| CCC(c1cn(-c2ccccc2F)nn1)n1cc(-c2cnc(N(C)C)nc2)c2c(N)ncnc21 (single isomer, unassigned; enantiomer 1) [Example 145, 5-[2-(Dimethylamino)pyrimidin-5-yl]-7-{1-[1-(2-fluorophenyl)-1H-1,2,3-triazol-4-yl]propyl}-7H-pyrrolo[2,3-d]pyrimidin-4-amine, enantiomer 1] | 29.7 | 26 |
| CCC(c1cn(-c2ccc(F)cc2)nn1)n1cc(-c2cncnc2OC)c2c(N)ncnc21 (single isomer, unassigned; enantiomer 1) [Example 149, (+) 7-{1-[1-(4-Fluorophenyl)-1H-1,2,3-triazol-4-yl]propyl}-5-(4-methoxypyrimidin-5-yl)-7H-pyrrolo[2,3-d]pyrimidin-4-amine, enantiomer 1] | 45.3 | 28.9 |
| CCC(c1cn(-c2ccc(F)c(F)c2)nn1)n1cc(-c2cncnc2OC)c2c(N)ncnc21 (single isomer, unassigned; enantiomer 1) [Example 151, (+) 7-{1-[1-(3,4-Difluorophenyl)-1H-1,2,3-triazol-4-yl]propyl}-5-(4-methoxypyrimidin-5-yl)-7H-pyrrolo[2,3-d]pyrimidin-4-amine, enantiomer 1] | 35.5 | 34.1 |
| CCC(c1cn(-c2ccc(F)c(F)c2)nn1)n1cc(-c2cnc(C(F)(F)F)nc2)c2c(N)ncnc21 (single isomer, unassigned; enantiomer 1) [Example 153, 7-{1-[1-(3,4-Difluorophenyl)-1H-1,2,3-triazol-4-yl]propyl}-5-[2-(trifluoromethyl)pyrimidin-5-yl]-7H-pyrrolo[2,3-d]pyrimidin-4-amine, enantiomer 1] | 19.8 | 59 |
| CCC(c1cn(-c2ccc(F)c(F)c2)nn1)n1cc(-c2cc(F)cnc2OC)c2c(N)ncnc21 (single isomer, unassigned; enantiomer 1) [Example 155, 7-{1-[1-(3,4-Difluorophenyl)-1H-1,2,3-triazol-4-yl]propyl}-5-(5-fluoro-2-methoxypyridin-3-yl)-7H-pyrrolo[2,3-d]pyrimidin-4-amine, enantiomer 1] | 9.17 | 38.6 |
| CCC(c1cn(-c2ccc(F)c(F)c2)nn1)n1cc(-c2cnc(OC)c(F)c2)c2c(N)ncnc21 (single isomer, unassigned; enantiomer 1) [Example 157, 7-{1-[1-(3,4-Difluorophenyl)-1H-1,2,3-triazol-4-yl]propyl}-5-(5-fluoro-6-methoxypyridin-3-yl)-7H-pyrrolo[2,3-d]pyrimidin-4-amine, enantiomer 1] | 239 | 433 |
| CCC(c1cn(-c2ccc(F)cc2F)nn1)n1cc(-c2cncnc2OC)c2c(N)ncnc21 (single isomer, unassigned; enantiomer 1) [Example 159, (+) 7-{1-[1-(2,4-Difluorophenyl)-1H-1,2,3-triazol-4-yl]propyl}-5-(4-methoxypyrimidin-5-yl)-7H-pyrrolo[2,3-d]pyrimidin-4-amine, enantiomer 1] | 35.5 | 18.5 |
| CCC(c1cn(-c2ccc(F)cc2F)nn1)n1cc(-c2cc(F)cnc2OC)c2c(N)ncnc21 (single isomer, unassigned; enantiomer 1) [Example 163, 7-{1-[1-(2,4-Difluorophenyl)-1H-1,2,3-triazol-4-yl]propyl}-5-(5-fluoro-2-methoxypyridin-3-yl)-7H-pyrrolo[2,3-d]pyrimidin-4-amine, enantiomer 1] | 97.1 | 296 |
| CCC(c1cn(-c2ccc(F)cc2F)nn1)n1cc(-c2cnc(OC)c(F)c2)c2c(N)ncnc21 (single isomer, unassigned; enantiomer 1) [Example 165, 7-{1-[1-(2,4-Difluorophenyl)-1H-1,2,3-triazol-4-yl]propyl}-5-(5-fluoro-6-methoxypyridin-3-yl)-7H-pyrrolo[2,3-d]pyrimidin-4-amine, enantiomer 1] | 247 | 728 |
| CCC(c1cn(-c2ccc(F)cc2F)nn1)n1cc(-c2cnc(C(F)F)nc2)c2c(N)ncnc21 (single isomer, unassigned; enantiomer 1) [Example 167, 5-[2-(Difluoromethyl)pyrimidin-5-yl]-7-{1-[1-(2,4-difluorophenyl)-1H-1,2,3-triazol-4-yl]propyl}-7H-pyrrolo[2,3-d]pyrimidin-4-amine, enantiomer 1] | 50.5 | 25 |
| CCC(c1cn(-c2cccc(F)c2F)nn1)n1cc(-c2cc(F)cnc2OC)c2c(N)ncnc21 (single isomer, unassigned; enantiomer 1) [Example 169, 7-{1-[1-(2,3-Difluorophenyl)-1H-1,2,3-triazol-4-yl]propyl}-5-(5-fluoro-2-methoxypyridin-3-yl)-7H-pyrrolo[2,3-d]pyrimidin-4-amine, enantiomer 1] | 4.9 | 7.98 |
| CCC(c1cn(-c2cc(F)ccc2F)nn1)n1cc(-c2cc(F)cnc2OC)c2c(N)ncnc21 (single isomer, unassigned; enantiomer 1) [Example 171, 7-{1-[1-(2,5-Difluorophenyl)-1H-1,2,3-triazol-4-yl]propyl}-5-(5-fluoro-2-methoxypyridin-3-yl)-7H-pyrrolo[2,3-d]pyrimidin-4-amine, enantiomer 1] | 3.87 | 11.7 |
| CCC(c1cn(-c2ccccc2F)nn1)n1cc(C2CC2)c2c(N)ncnc21 (single isomer, unassigned; enantiomer 1) [Example 173, (−) 5-Cyclopropyl-7-{1-[1-(2-fluorophenyl)-1H-1,2,3-triazol-4-yl]propyl}-7H-pyrrolo[2,3-d]pyrimidin-4-amine, enantiomer 1] | 26.7 | 29.3 |
